In patent US6280760A, “Peptide-coated implants and methods for producing same” (Merck Patent Gesellschaft mit beschraenkter Haftung, priority 1997, dated 2001):
pEC50: −log10 of the molar value.

What was measured:
[1] = tested on: MC3T3 H1 osteoblasts; experiment: Adhesion of MC3T3 H1 osteoblasts to PMMA moulded articles coated with acrylate RGD peptides; assay type: cell-based, mouse; details: for maximal adsorption rates: 48,000 cells/cm^2, 1 hour
Method: For the covalent coupling of these peptides to polymerized PMMA (polymethyl methacrylate) surfaces, appropriate shaped articles of differing porosity (diameter: 10 mm; height: 2 mm) were prepared from three different PMMA components.
Bone cement based on PMMA (Merck KGaA, Germany, Licence No. 5181.00.00) corresponding to the product description (40 g of powder+20 ml of liquid).
10 g of PMMA/PHEMA (polyhydroxyethyl methacrylate) granules, particle size 0.5-0.6 mm (Biomet) were mixed with 1.3 ml of an HEMA solution (68.6% HEMA, 29.4% TEGMA [triethylene glycol dimethacrylate], 2% tBPB, [tert-butyl peroxybenzoate]) and adhered by means of this to a porous support material.
10 g of PMMA granules (Plex Y7H, Rohm, Germany), particle fraction 0.7-2 mm were mixed with 1.5 ml of a methyl methacrylate (MMA) solution (68.6% MMA, 29.4% TEGMA, 2% tBPB) and adhered by this means to a porous support material.
For the covalent coupling of the acrylate peptides to the prepolymerized PMMA moulded articles, stock solutions of the acrylate peptides 1, 2, 3 and 4 were prepared in a final concentration of 100 μM in each case in DMSO/0.2% camphorquinone (w/v). Then, by dilution with isopropanol/0.2% camphorquinone (w/v), concentration series having final peptide concentrations of 0.1 nM, 1 nM, 10 nM, 100 nM, 1 μM and 10 μM in each case were prepared. The moulded articles were incubated in daylight and at room temperature for 2 hours and then stored at 4° C. in the dry state. Before use, the samples were washed with PBS, pH 7.4, to remove unbound peptides and stored at 4° C. in PBS, pH 7.4, overnight.
By addition of 250 μl/moulded article each of a 5% strength BSA solution in PBS, pH 7.4, and subsequent incubation for 2 hours at room temperature and washing once with PBS, pH 7.4, non-specific cell-binding sites were blocked.
Subsequently, the adhesion of osteoblasts of the MC3T3 H1 line, obtained from the calvaria of neonatal mice (Heermeier et al., 1995, Cells and Materials 5: 309-321) to the above-described peptide-coated surfaces was investigated.
The MC3T3 H1 osteoblasts were inoculated at an inoculation density of 48,000 cells/cm^2, as described above, in Costar 48-well plates, with PMMA moulded articles coated with RGD peptide and then incubated for 1 hour at 37° C., 95% atmospheric humidity and 5% CO2. Cells non-adhered during the experiment were then washed off twice with PBS, pH 7.4.
(§1) The quantification of the adhered cells was carried out indirectly via the activity determination of the cellular enzyme N-acetylhexosaminidase using an appropriate standard curve according to the method of Landegren (1984, J. Immunol. Methods, 67: 379-388).

[2] = tested on: primary human osteoprogenitor cells; experiment: Adhesion of primary human osteoprogenitor cells to BSA-pretreated polystyrene surfaces coated with thiol-RGD peptides via sulpho-SMPB; assay type: cell-based; details: 48,000 cells/cm^2, 1 hour
Method: (§2) The covalent coupling of the peptides according to the invention with sulphosuccinimidyl 4-(p-maleimidophenyl)butyrate (sulpho-SMPB) to culture surfaces of polystyrene precoated with bovine serum albumin (BSA) was accomplished following the established processes of Singer et al., 1987, J. Cell. Biol. 104: 573, or of Ruoslahti et al. (1982, Methods. Enzymol., 82: 803-831).
(§3) To do this, 48-well plates (Costar, "non-tissue culture treated", Art. No. 3547) were each coated with 250 μl of PBS (phosphate-buffered saline), pH=8.3, 2% BSA, per well and incubated overnight at room temperature in order to generate a BSA layer on the polystyrene. The plates were then washed with 250 μl of PBS, pH=8.3, per well and incubated at room temperature for 1 hour with 250 μl each of a solution containing 100 μg/ml of SMPB in PBS, pH 8.3. Washing of the wells was then carried out three times using 250 μl of PBS, pH 8.3, each time. For the preparation of the coating solutions, the appropriate thiol-RGD peptide was prepared in the following final concentrations in PBS, pH 8.3: 1 nM, 10 nM, 100 nM, 1 μM, 10 μM, 100 μM and 1 mM. […]
as §1

[3] = tested on: MC3T3 H1 osteoblasts; experiment: Adhesion of MC3T3 H1 osteoblasts to BSA-pretreated polystyrene surfaces coated with thiol-RGD peptides via sulpho-SMPB; assay type: cell-based, mouse; details: for stimulation of the adhesion of cultured mouse MC3T3 H1 osteoblasts: BSA-pretreated polystyrene, peptide coupled via sulpho-SMPB, FIG. 2; for maximum adsorption rate (of the inoculated cells): MC3T3 H1 mouse osteoblasts, 48,000 cells/cm^2, 1 hour
Method: as §2
To do this, 48-well plates (Costar, "non-tissue culture treated", Art. No. 3547) were each coated with 250 μl of PBS (phosphate-buffered saline), pH=8.3, 2% BSA, per well and incubated overnight at room temperature in order to generate a BSA layer on the polystyrene. The plates were then washed with 250 μl of PBS, pH=8.3, per well and incubated at room temperature for 1 hour with 250 μl each of a solution containing 100 μg/ml of SMPB in PBS, pH 8.3. Washing of the wells was then carried out three times using 250 μl of PBS, pH 8.3, each time. For the preparation of the coating solutions, the appropriate thiol-RGD peptide was prepared in the following final concentrations in PBS, pH 8.3: 1 nM, 10 nM, 100 nM, 1 μM, 10 μM, 100 μM and 1 mM. After addition of 250 μl each of coating solution/well, the plates were incubated at room temperature overnight and then washed three times with PBS, pH 8.3. By addition of 250 μl each of a 5% strength BSA solution in PBS, pH 7.4, subsequent incubation for 2 hours at room temperature and washing with PBS, pH 7.4, non-specific cell-binding sites were blocked. Polystyrene surfaces, which from the coating were treated with a 5% strength BSA solution identically to the positive samples, functioned as negative coating controls. The adhesion of four cell cultures which were obtained from three different species was then investigated on the abovementioned surfaces coated with RGD peptide:
osteoblast cell line MC3T3 H1, obtained from the calvaria of neonatal mice (Heermeier et al., 1995, Cells and Materials, 5: 309-321), and
The cell species described were inoculated with an inoculation density of 48,000 cells/cm^2 into, as described above, Costar-48 well plates coated with RGD peptide, and then incubated for 1 hour at 37° C., 95% atmospheric humidity and 5% CO2. Cells unadhered during the experiment were then washed off twice with PBS, pH 7.4.
as §1

[4] = tested on: primary human osteoblasts; experiment: Adhesion of primary human osteoblasts to BSA-pretreated polystyrene surfaces coated with thiol-RGD peptides via sulpho-SMPB; assay type: cell-based; details: 48,000 cells/cm^2, 1 hour
Method: as §2, §3, §1

[5] = tested on: human melanoma cell line M21L; experiment: Adhesion of alphav beta3-/alphav beta5-negative control cells M21L to thiolpeptide-coated BSA-polystyrene surfaces; assay type: cell-based; details: BSA-pretreated polystyrene coated with thiolpeptide
Method: as §2, §3, §1

[6] = tested on: osteoblast cultures; experiment: Adhesion of the different osteoblast cell species to thiolpeptide-coated BSA-polystyrene surfaces (statements over all cultures); assay type: cell-based, mouse, human, rat; details: all osteoblast cultures employed
Method: as §2, §3, §1

[7] = tested on: primary rat osteoblasts; experiment: Adhesion of primary rat osteoblasts to BSA-pretreated polystyrene surfaces coated with thiol-RGD peptides via sulpho-SMPB; assay type: cell-based; details: 48,000 cells/cm^2, 1 hour
Method: as §2, §3, §1

[8] = bone cement shaped articles, FIG. 8
[9] = different PMMA moulded articles

Substance | stimulation of cell adhesion (in words) ([1]; PMMA carriers, comparison of anchor lengths) | cell adsorption rates increased in comparison with uncoated surfaces [1, 8] | maximal adsorption rates [1, 9] | maximum adsorption rate (of the inoculated cells) [2] | stimulation of the adhesion of cultured mouse MC3T3 H1 osteoblasts [3] | maximum adsorption rate (of the inoculated cells) [3] | maximum adsorption rate (of the inoculated cells) [4] | cell adhesion of alphav beta3-/alphav beta5-negative control cells (M21L) [5] | cell adsorption rates raised compared with 5% BSA-coated surfaces [6] | maximum adsorption rate (of the inoculated cells) [7] | pEC50 ([1]; different PMMA moulded articles, read-out: half-maximal cell bindings, RGD peptide concentration in the coating solution) | cell adsorption rates increased in comparison with uncoated surfaces ([1]; porous PMMA/PHEMA granule shaped articles, FIG. 9) | cell adsorption rates increased in comparison with uncoated surfaces ([1]; porous Plex Y7H granule shaped articles, FIG. 10)
cyclo(RGDf[acrylic-ahx-K]) [acrylate peptide 1] | almost inactive | about 1.5 fold | about 20% | – | – | – | – | – | – | – | – | – | –
cyclo-RGDfK NH--CO--CH2 --CH2 --CO--NH--CH2 --CH2 --S-- (sulpho-SMPB) [thiolpeptide 2-(sulpho-SMPB) derivative] | – | – | – | about 80% | strong and dose-dependent stimulation | 90-100% | about 80% | do not show any significant cell adhesion | 20-40 fold | about 70% | – | – | –
cyclo-RGDfK NH--CO--CH2 --CH2 --S-- (sulpho-SMPB) [thiolpeptide 1-(sulpho-SMPB) derivative] | – | – | – | about 80% | strong and dose-dependent stimulation | 90-100% | about 80% | do not show any significant cell adhesion | 20-40 fold | about 70% | – | – | –
cyclo-RGDvE CO--NH--CH2 --CH2 --CH2 --CH2 --CH2 --CO--NH--CH2 --CH2 --S-- (sulpho SMPB) [thiolpeptide 3-(sulfo-SMPB), reference compound] | – | – | – | – | markedly weaker effect | – | – | – | – | – | – | – | –
cyclo(RGDf[acrylic-ahx-tEG-tEGK]) [acrylate peptide 4] | – | 5-15 fold | 80-100% | – | – | – | – | – | – | – | 5.00 to 9.00 | 2-5 fold | 2-3 fold
